Some test systems named below: HS 578T breast; MDA-MB-435; RXF 393 renal; NCI-H226 lung; LOX IMVI melanoma; OVCAR-5 ovarian; MOLT-4 leukemia; NCI-H23 lung; SK-MEL-28 melanoma; HT29 colon.
Experiment in all cases: inhibition of tumour cell growth, NCI panel, 48 h

In PubChem BioAssay (NCI) one finds GI50 and TGI data, which are given here for 10 compounds.

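How tested: cells in 96-well plates exposed to compound for 48 hours at five concentrations. At the GI50, growth is halved. TGI denotes the concentration required for complete inhibition of growth.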 Bounds are passed on as bounds.

`C/C=C(\C)C(=O)O[C@H]1C=CC(=O)O[C@H]1COC(=O)[C@H](C)O`: the GI50 in the assay on HS 578T breast was 7.37 µM; in the assay on MDA-MB-435, 5.74 µM; in the assay with NCI-H226 lung it was 12.4 µM; in the assay on LOX IMVI melanoma, 3.59 µM; with OVCAR-5 ovarian, 18.8 µM; in the assay with MOLT-4 leukemia, 1.95 µM. Further, the figures for the GI50 in the assay on NCI-H23 lung, in the assay with SK-MEL-28 melanoma and in the assay on HT29 colon were 15.3 µM, 3.53 µM and 3.76 µM, respectively. Besides, the TGI is 26 µM with HS 578T breast; 22.4 µM with MDA-MB-435; 7.41 µM with RXF 393 renal; 31.5 µM with NCI-H226 lung; 14.8 µM in the assay with LOX IMVI melanoma; 39 µM with OVCAR-5 ovarian. The TGI in the assay on MOLT-4 leukemia is 5.22 µM; in the assay with NCI-H23 lung, 36.9 µM; with SK-MEL-28 melanoma, 11.5 µM; in the assay on HT29 colon, 17.4 µM.
For `COC(=O)c1oc2c(C(=O)/C=C/c3ccc(OC)cc3)c(OCCN3CCOCC3)ccc2c1C`, the GI50 in the assay on HS 578T breast was 1.74 µM; with MDA-MB-435, 2.37 µM; in the assay with RXF 393 renal it was 0.0487 µM; with NCI-H226 lung, 1.59 µM; in the assay with LOX IMVI melanoma it was 1.4 µM; in the assay with OVCAR-5 ovarian, 2.38 µM. In addition, the GI50 in the assay with MOLT-4 leukemia was 1.24 µM; with NCI-H23 lung, 1.91 µM; with SK-MEL-28 melanoma it was 2.33 µM; in the assay with HT29 colon it was 1.94 µM. For the same compound, the TGI in the assay with HS 578T breast turned out to be 5.84 µM; in the assay on MDA-MB-435 it was 7.34 µM; with RXF 393 renal, 0.493 µM; in the assay with NCI-H226 lung, 3.51 µM; in the assay with LOX IMVI melanoma it was 2.79 µM; in the assay with OVCAR-5 ovarian, 6.68 µM. Also, the TGI in the assay with MOLT-4 leukemia is 3.72 µM; in the assay on NCI-H23 lung, 5.46 µM; in the assay with SK-MEL-28 melanoma, 5.19 µM; in the assay on HT29 colon, 4.48 µM.
Turning to `N#Cc1c(N/N=C\c2ccc(Cl)cc2)nc(N)nc1N1CCOCC1`, the GI50 is 41.1 µM in the assay with HS 578T breast; 35 µM with MDA-MB-435; 15 µM with RXF 393 renal; 53.6 µM in the assay with NCI-H226 lung; 21.6 µM with LOX IMVI melanoma; over 100 µM in the assay with OVCAR-5 ovarian. Further, the GI50 in the assay with MOLT-4 leukemia was 13.6 µM; in the assay on NCI-H23 lung, 87.8 µM; in the assay on SK-MEL-28 melanoma it was over 100 µM; with HT29 colon, 26.7 µM. The TGI with HS 578T breast is over 100 µM; in the assay with MDA-MB-435, over 100 µM; in the assay with RXF 393 renal, over 100 µM; in the assay with NCI-H226 lung, over 100 µM; in the assay on LOX IMVI melanoma, 62.4 µM; in the assay on OVCAR-5 ovarian it was over 100 µM. Further, the TGI in the assay with MOLT-4 leukemia was 34.4 µM; in the assay on NCI-H23 lung, over 100 µM; with SK-MEL-28 melanoma it was over 100 µM; with HT29 colon it was over 100 µM.
Consider `Cn1cc(C2=C(c3cn(CCCCCO)c4ccccc34)C(=O)NC2=O)c2ccccc21`, for which the GI50 is 3.74 µM with HS 578T breast; 0.815 µM with MDA-MB-435; 3.51 µM with RXF 393 renal; 5.03 µM in the assay on NCI-H226 lung; 4.99 µM in the assay with LOX IMVI melanoma; 11.8 µM in the assay with OVCAR-5 ovarian. For the same compound, the GI50 was 4.71 µM in the assay on MOLT-4 leukemia, 5.34 µM with NCI-H23 lung, 4.92 µM with SK-MEL-28 melanoma and 3.31 µM in the assay on HT29 colon. Besides, the TGI was 17.5 µM with HS 578T breast; 4.4 µM in the assay with MDA-MB-435; 9.61 µM in the assay with RXF 393 renal; 15.8 µM with NCI-H226 lung; over 19.4 µM in the assay on LOX IMVI melanoma; over 25 µM with OVCAR-5 ovarian. Moreover, the TGI stood at 16.6 µM in the assay with MOLT-4 leukemia, 16.5 µM with NCI-H23 lung, 15.7 µM with SK-MEL-28 melanoma and 13.9 µM with HT29 colon.
As to `C=CC(=O)N1CC[C@H](n2nc(C#Cc3cc(OC)cc(OC)c3)c3c(N)ncnc32)C1`, the GI50 in the assay with HS 578T breast is 1.71 µM; in the assay on MDA-MB-435 it was 10.6 µM; with RXF 393 renal it was 1.06 µM; in the assay with NCI-H226 lung, 6.42 µM; with LOX IMVI melanoma it was 5.72 µM; with OVCAR-5 ovarian, 62.3 µM. Moreover, the GI50 was 5.02 µM in the assay on MOLT-4 leukemia, 17.5 µM in the assay with NCI-H23 lung, 21.9 µM in the assay with SK-MEL-28 melanoma and 13.9 µM with HT29 colon. Further, the TGI was 9.82 µM in the assay on HS 578T breast; over 100 µM in the assay with MDA-MB-435; 4.48 µM with RXF 393 renal; over 100 µM in the assay with NCI-H226 lung; over 100 µM in the assay with LOX IMVI melanoma; over 100 µM in the assay on OVCAR-5 ovarian. Moreover, the TGI is 69.3 µM with MOLT-4 leukemia, over 100 µM in the assay on NCI-H23 lung, over 100 µM with SK-MEL-28 melanoma and over 100 µM with HT29 colon.
`Nc1nn(C(=O)Nc2c(F)cccc2F)c2ccccc12`: the GI50 in the assay on HS 578T breast was 73 µM; in the assay with MDA-MB-435, 54.9 µM; in the assay on RXF 393 renal it was 20.2 µM; with NCI-H226 lung it was 98.5 µM; with LOX IMVI melanoma it was 49.3 µM; in the assay with OVCAR-5 ovarian, over 100 µM. Moreover, the GI50 is 32.7 µM in the assay with MOLT-4 leukemia, 95.6 µM in the assay on NCI-H23 lung, 56.3 µM in the assay on SK-MEL-28 melanoma and 74.6 µM in the assay with HT29 colon. Further, the TGI with HS 578T breast, in the assay with MDA-MB-435, in the assay on RXF 393 renal, with NCI-H226 lung, with LOX IMVI melanoma and in the assay on OVCAR-5 ovarian was over 100 µM throughout. Moreover, the TGI in the assay on MOLT-4 leukemia, with NCI-H23 lung, in the assay on SK-MEL-28 melanoma and in the assay on HT29 colon was over 100 µM each time.
On to `CN1C(=O)C2(c3ccccc31)C1CC3C(CO1)C1C2C3(CO)CN1C#N` (centres undefined), for which the TGI in the assay with HS 578T breast, in the assay on MDA-MB-435, in the assay on RXF 393 renal, in the assay with NCI-H226 lung, with LOX IMVI melanoma and in the assay with OVCAR-5 ovarian was over 100 µM throughout. For the same compound, the TGI in the assay with MOLT-4 leukemia, in the assay on NCI-H23 lung, in the assay on SK-MEL-28 melanoma and with HT29 colon was over 100 µM in each case.
Consider `CCCN(CCC)c1ccc(C=O)c(C)c1`, for which the GI50 in the assay with HS 578T breast was 39.7 µM; in the assay with MDA-MB-435, 32.6 µM; in the assay on RXF 393 renal it was 34.3 µM; in the assay with NCI-H226 lung it was 11.3 µM; in the assay with LOX IMVI melanoma, 65 µM; with OVCAR-5 ovarian it was 58.5 µM. Also, the GI50 is 39.8 µM in the assay on MOLT-4 leukemia, 35.8 µM in the assay on NCI-H23 lung, 68.2 µM in the assay on SK-MEL-28 melanoma and 33.5 µM in the assay with HT29 colon. Also, the TGI with HS 578T breast was over 100 µM; with MDA-MB-435 it was over 100 µM; with RXF 393 renal, over 100 µM; with NCI-H226 lung it was over 71.5 µM; in the assay with LOX IMVI melanoma it was over 100 µM; with OVCAR-5 ovarian, over 100 µM. In addition, the TGI with MOLT-4 leukemia, in the assay with NCI-H23 lung, in the assay with SK-MEL-28 melanoma and in the assay with HT29 colon was over 100 µM throughout.
Regarding `COc1cc(/C=C/C(=O)c2c(-c3ccc(F)cc3)nc3sc(C)nn23)cc(OC)c1OC`, the GI50 with HS 578T breast is 5.39 µM; in the assay with MDA-MB-435, 3.35 µM; with RXF 393 renal, 2.11 µM; in the assay with NCI-H226 lung, 2.46 µM; with LOX IMVI melanoma it was 1.76 µM; in the assay with OVCAR-5 ovarian, 3.46 µM. For the same compound, the GI50 in the assay on MOLT-4 leukemia is 2.3 µM; in the assay on NCI-H23 lung, 2.98 µM; with SK-MEL-28 melanoma it was 2.19 µM; with HT29 colon it was 2.55 µM. Besides, the TGI in the assay with HS 578T breast was over 100 µM; in the assay with MDA-MB-435, 13 µM; with RXF 393 renal, 6.66 µM; with NCI-H226 lung, 8.3 µM; in the assay with LOX IMVI melanoma, 3.52 µM; in the assay with OVCAR-5 ovarian, 9.92 µM. Also, the TGI with MOLT-4 leukemia is 6.72 µM; in the assay with NCI-H23 lung, 9.55 µM; in the assay on SK-MEL-28 melanoma, 4.9 µM; in the assay on HT29 colon, 5.51 µM.
For `O=[N+]([O-])c1ccc2c(c1)C(c1ccccc1Cl)=Nc1c(n[nH]c1-c1cccnc1)N2`, the GI50 was over 19.9 µM with HS 578T breast; over 25 µM with MDA-MB-435; over 25 µM in the assay on RXF 393 renal; over 25 µM in the assay on NCI-H226 lung; over 25 µM in the assay on LOX IMVI melanoma; over 25 µM in the assay on OVCAR-5 ovarian. Further, the GI50 with MOLT-4 leukemia, in the assay on NCI-H23 lung, in the assay on SK-MEL-28 melanoma and in the assay with HT29 colon was over 25 µM throughout. The TGI with HS 578T breast, in the assay with MDA-MB-435, with RXF 393 renal, in the assay with NCI-H226 lung, in the assay with LOX IMVI melanoma and in the assay with OVCAR-5 ovarian was over 25 µM each time. The TGI with MOLT-4 leukemia, with NCI-H23 lung, with SK-MEL-28 melanoma and in the assay on HT29 colon was over 25 µM throughout.
